Source: ChEMBL document CHEMBL3875154 (Eur J Med Chem, 2016)

Legend:
[1] = Inhibition of human PDE4 catalytic domain using FAM-3',5'-cAMP as substrate after 1 hr by fluorescence polarization assay
Homo sapiens = organism: Homo sapiens; test: Potency index, ratio of rolipram IC50 to test compound IC50 for human PDE4 catalytic domain
[2] = target: T1, 3',5'-cyclic-AMP phosphodiesterase 4D (Homo sapiens, UniProt Q08499); test: Inhibition of full length human PDE4D7 at 10^4 nM using FAM-3',5'-cAMP as substrate after 1 hr by fluorescence polarization assay relative to control
[3] = target: T2, Cone cGMP-specific 3',5'-cyclic phosphodiesterase subunit alpha' (Homo sapiens, UniProt P51160); test: Inhibition of human PDE6C at 10^4 nM using FAM-3',5'-cAMP as substrate after 1 hr by fluorescence polarization assay relative to control
[4] = target: T3, cAMP and cAMP-inhibited cGMP 3',5'-cyclic phosphodiesterase 10A (Homo sapiens, UniProt Q9Y233); test: Inhibition of human PDE10A2 at 10^4 nM using FAM-3',5'-cAMP as substrate after 1 hr by fluorescence polarization assay relative to control
[5] = target: T4, cGMP-inhibited 3',5'-cyclic phosphodiesterase 3B (Homo sapiens, UniProt Q13370); test: Inhibition of human PDE3B at 10^4 nM using FAM-3',5'-cAMP as substrate after 1 hr by fluorescence polarization assay relative to control
Target sequence in this assay (Q13370 whole entry, looked up): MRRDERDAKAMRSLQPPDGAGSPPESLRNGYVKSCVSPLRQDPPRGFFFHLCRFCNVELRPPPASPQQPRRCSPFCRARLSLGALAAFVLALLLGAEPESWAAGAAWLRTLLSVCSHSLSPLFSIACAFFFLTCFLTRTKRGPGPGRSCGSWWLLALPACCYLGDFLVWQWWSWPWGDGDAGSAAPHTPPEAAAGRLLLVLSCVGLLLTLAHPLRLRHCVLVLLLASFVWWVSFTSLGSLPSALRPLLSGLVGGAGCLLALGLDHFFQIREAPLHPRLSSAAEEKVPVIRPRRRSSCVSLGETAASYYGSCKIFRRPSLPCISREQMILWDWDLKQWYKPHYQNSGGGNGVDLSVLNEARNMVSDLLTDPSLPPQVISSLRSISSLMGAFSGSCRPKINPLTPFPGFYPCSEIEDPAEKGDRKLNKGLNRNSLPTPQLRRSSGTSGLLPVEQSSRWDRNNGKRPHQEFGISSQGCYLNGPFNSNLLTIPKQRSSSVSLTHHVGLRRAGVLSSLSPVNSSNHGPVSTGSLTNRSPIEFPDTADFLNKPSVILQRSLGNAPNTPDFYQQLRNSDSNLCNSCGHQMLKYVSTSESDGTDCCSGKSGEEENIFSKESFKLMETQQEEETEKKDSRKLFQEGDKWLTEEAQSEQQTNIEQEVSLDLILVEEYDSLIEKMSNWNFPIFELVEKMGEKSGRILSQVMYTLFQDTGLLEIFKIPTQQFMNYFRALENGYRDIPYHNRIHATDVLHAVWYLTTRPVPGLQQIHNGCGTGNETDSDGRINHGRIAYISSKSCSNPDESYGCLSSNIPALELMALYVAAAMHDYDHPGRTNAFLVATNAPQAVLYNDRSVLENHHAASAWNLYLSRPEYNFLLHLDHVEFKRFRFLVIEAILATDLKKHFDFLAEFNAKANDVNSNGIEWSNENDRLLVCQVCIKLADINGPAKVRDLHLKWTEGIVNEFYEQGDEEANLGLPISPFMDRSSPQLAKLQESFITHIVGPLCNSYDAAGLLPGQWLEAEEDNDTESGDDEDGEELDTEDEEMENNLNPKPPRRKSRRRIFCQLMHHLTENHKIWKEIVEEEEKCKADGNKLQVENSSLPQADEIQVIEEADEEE

[6] = target: T5, cGMP-dependent 3',5'-cyclic phosphodiesterase (Homo sapiens, UniProt O00408); test: Inhibition of human PDE2A using FAM-3',5'-cAMP as substrate after 1 hr by fluorescence polarization assay
[7] = target: T6, High affinity 3',5'-cyclic-AMP phosphodiesterase 7A (Homo sapiens, UniProt Q13946); test: Inhibition of human PDE7A using FAM-3',5'-cAMP as substrate after 1 hr by fluorescence polarization assay
[8] = target: T1, 3',5'-cyclic-AMP phosphodiesterase 4D; test: Inhibition of full length human PDE4D7 using FAM-3',5'-cAMP as substrate after 1 hr by fluorescence polarization assay
[9] = target: T7, Dual 3',5'-cyclic-AMP and -GMP phosphodiesterase 11A (Homo sapiens, UniProt Q9HCR9); test: Inhibition of human PDE11A at 10^4 nM using FAM-3',5'-cAMP as substrate after 1 hr by fluorescence polarization assay relative to control
Target sequence in this assay (Q9HCR9 whole entry, looked up): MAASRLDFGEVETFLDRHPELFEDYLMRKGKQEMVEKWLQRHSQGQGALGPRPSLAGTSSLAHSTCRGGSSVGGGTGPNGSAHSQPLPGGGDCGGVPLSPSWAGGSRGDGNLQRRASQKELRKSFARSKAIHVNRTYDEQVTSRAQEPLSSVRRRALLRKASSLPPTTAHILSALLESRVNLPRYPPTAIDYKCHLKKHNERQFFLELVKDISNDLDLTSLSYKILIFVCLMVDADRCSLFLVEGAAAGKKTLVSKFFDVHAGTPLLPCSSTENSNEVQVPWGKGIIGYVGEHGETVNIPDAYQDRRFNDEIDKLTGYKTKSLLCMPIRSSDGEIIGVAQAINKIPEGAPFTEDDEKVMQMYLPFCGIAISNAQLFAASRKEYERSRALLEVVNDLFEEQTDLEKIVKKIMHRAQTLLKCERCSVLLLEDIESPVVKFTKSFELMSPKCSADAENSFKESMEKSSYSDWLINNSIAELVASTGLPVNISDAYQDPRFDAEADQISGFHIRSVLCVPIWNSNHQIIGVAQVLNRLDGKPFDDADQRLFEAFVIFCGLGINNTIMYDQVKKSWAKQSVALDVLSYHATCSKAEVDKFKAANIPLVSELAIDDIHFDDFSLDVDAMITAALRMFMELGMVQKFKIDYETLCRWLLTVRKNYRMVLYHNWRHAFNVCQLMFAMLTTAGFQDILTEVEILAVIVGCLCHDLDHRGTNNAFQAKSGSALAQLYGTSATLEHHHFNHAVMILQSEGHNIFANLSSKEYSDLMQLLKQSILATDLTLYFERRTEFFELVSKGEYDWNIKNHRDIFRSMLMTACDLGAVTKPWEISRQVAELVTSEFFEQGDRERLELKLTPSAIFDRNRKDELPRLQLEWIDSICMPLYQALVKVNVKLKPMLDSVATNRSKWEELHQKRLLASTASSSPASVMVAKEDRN

[10] = target: T4, cGMP-inhibited 3',5'-cyclic phosphodiesterase 3B; test: Inhibition of human PDE3B using FAM-3',5'-cAMP as substrate after 1 hr by fluorescence polarization assay
Target sequence in this assay (Q13370 whole entry): as the sequence (Q13370 whole entry, looked up) above

[11] = target: T8, 3',5'-cyclic-AMP phosphodiesterase 4B (Homo sapiens, UniProt Q07343); test: Inhibition of full length human PDE4B1 using FAM-3',5'-cAMP as substrate after 1 hr by fluorescence polarization assay
[12] = target: T8, 3',5'-cyclic-AMP phosphodiesterase 4B; test: Inhibition of full length human PDE4B1 at 10^4 nM using FAM-3',5'-cAMP as substrate after 1 hr by fluorescence polarization assay relative to control
[13] = target: T9, Dual specificity calcium/calmodulin-dependent 3',5'-cyclic nucleotide phosphodiesterase 1A (Homo sapiens, UniProt P54750); test: Inhibition of human PDE1A at 10^4 nM using FAM-3',5'-cAMP as substrate after 1 hr by fluorescence polarization assay relative to control
[14] = target: T10, 3',5'-cyclic-AMP phosphodiesterase 4C (Homo sapiens, UniProt Q08493); test: Inhibition of full length human PDE4C1 at 10^4 nM using FAM-3',5'-cAMP as substrate after 1 hr by fluorescence polarization assay relative to control
[15] = target: T11, High affinity cGMP-specific 3',5'-cyclic phosphodiesterase 9A (Homo sapiens, UniProt O76083); test: Inhibition of human PDE9A2 using FAM-3',5'-cAMP as substrate after 1 hr by fluorescence polarization assay
[16] = target: T12, cGMP-specific 3',5'-cyclic phosphodiesterase (Homo sapiens, UniProt O76074); test: Inhibition of human PDE5A at 10^4 nM using FAM-3',5'-cAMP as substrate after 1 hr by fluorescence polarization assay relative to control
[17] = target: T7, Dual 3',5'-cyclic-AMP and -GMP phosphodiesterase 11A; test: Inhibition of human PDE11A using FAM-3',5'-cAMP as substrate after 1 hr by fluorescence polarization assay
Target sequence in this assay (Q9HCR9 whole entry): as the sequence (Q9HCR9 whole entry, looked up) above

[18] = target: T10, 3',5'-cyclic-AMP phosphodiesterase 4C; test: Inhibition of full length human PDE4C1 using FAM-3',5'-cAMP as substrate after 1 hr by fluorescence polarization assay
[19] = target: T13, High affinity cAMP-specific and IBMX-insensitive 3',5'-cyclic phosphodiesterase 8A (Homo sapiens, UniProt O60658); test: Inhibition of human PDE8A1 at 10^4 nM using FAM-3',5'-cAMP as substrate after 1 hr by fluorescence polarization assay relative to control
[20] = target: T12, cGMP-specific 3',5'-cyclic phosphodiesterase; test: Inhibition of human PDE5A using FAM-3',5'-cAMP as substrate after 1 hr by fluorescence polarization assay
[21] = target: T13, High affinity cAMP-specific and IBMX-insensitive 3',5'-cyclic phosphodiesterase 8A; test: Inhibition of human PDE8A1 using FAM-3',5'-cAMP as substrate after 1 hr by fluorescence polarization assay
[22] = target: T2, Cone cGMP-specific 3',5'-cyclic phosphodiesterase subunit alpha'; test: Inhibition of human PDE6C using FAM-3',5'-cAMP as substrate after 1 hr by fluorescence polarization assay
[23] = target: T11, High affinity cGMP-specific 3',5'-cyclic phosphodiesterase 9A; test: Inhibition of human PDE9A2 at 10^4 nM using FAM-3',5'-cAMP as substrate after 1 hr by fluorescence polarization assay relative to control
[24] = target: T9, Dual specificity calcium/calmodulin-dependent 3',5'-cyclic nucleotide phosphodiesterase 1A; test: Inhibition of human PDE1A using FAM-3',5'-cAMP as substrate after 1 hr by fluorescence polarization assay
[25] = target: T14, 3',5'-cyclic-AMP phosphodiesterase 4A (Homo sapiens, UniProt P27815); test: Inhibition of full length human PDE4A4 at 10^4 nM using FAM-3',5'-cAMP as substrate after 1 hr by fluorescence polarization assay relative to control
[26] = target: T6, High affinity 3',5'-cyclic-AMP phosphodiesterase 7A; test: Inhibition of human PDE7A at 10^4 nM using FAM-3',5'-cAMP as substrate after 1 hr by fluorescence polarization assay relative to control
[27] = target: T14, 3',5'-cyclic-AMP phosphodiesterase 4A; test: Inhibition of full length human PDE4A4 using FAM-3',5'-cAMP as substrate after 1 hr by fluorescence polarization assay
[28] = target: T5, cGMP-dependent 3',5'-cyclic phosphodiesterase; test: Inhibition of human PDE2A at 10^4 nM using FAM-3',5'-cAMP as substrate after 1 hr by fluorescence polarization assay relative to control
[29] = target: T3, cAMP and cAMP-inhibited cGMP 3',5'-cyclic phosphodiesterase 10A; test: Inhibition of human PDE10A2 using FAM-3',5'-cAMP as substrate after 1 hr by fluorescence polarization assay
BV-2 = test: Antineuroinflammatory activity in mouse BV2 cells assessed as inhibition of LPS-induced TNFalpha production; type: functional, cell-based

T1 sequence (Q08499 whole entry): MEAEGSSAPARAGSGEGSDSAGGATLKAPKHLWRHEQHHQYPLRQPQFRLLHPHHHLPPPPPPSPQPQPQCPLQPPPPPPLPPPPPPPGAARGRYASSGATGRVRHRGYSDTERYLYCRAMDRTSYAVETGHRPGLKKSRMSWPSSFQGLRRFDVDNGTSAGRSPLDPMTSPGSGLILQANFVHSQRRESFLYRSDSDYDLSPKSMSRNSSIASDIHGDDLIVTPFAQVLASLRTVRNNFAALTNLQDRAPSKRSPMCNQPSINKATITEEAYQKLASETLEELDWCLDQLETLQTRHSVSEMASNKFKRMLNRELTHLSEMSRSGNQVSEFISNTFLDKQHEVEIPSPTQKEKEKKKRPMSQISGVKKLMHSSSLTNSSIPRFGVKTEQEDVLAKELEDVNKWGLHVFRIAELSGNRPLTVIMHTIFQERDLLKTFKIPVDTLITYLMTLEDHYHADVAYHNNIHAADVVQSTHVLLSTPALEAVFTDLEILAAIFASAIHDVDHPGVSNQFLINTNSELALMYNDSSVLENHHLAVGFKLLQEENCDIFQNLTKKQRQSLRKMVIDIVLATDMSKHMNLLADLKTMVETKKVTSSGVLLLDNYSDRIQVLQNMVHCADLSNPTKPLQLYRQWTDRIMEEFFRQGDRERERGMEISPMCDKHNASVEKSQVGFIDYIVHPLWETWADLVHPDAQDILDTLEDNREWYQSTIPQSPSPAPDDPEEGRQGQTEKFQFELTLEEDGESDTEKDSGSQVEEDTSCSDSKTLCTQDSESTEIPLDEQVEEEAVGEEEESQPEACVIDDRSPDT
T10 sequence (Q08493 whole entry): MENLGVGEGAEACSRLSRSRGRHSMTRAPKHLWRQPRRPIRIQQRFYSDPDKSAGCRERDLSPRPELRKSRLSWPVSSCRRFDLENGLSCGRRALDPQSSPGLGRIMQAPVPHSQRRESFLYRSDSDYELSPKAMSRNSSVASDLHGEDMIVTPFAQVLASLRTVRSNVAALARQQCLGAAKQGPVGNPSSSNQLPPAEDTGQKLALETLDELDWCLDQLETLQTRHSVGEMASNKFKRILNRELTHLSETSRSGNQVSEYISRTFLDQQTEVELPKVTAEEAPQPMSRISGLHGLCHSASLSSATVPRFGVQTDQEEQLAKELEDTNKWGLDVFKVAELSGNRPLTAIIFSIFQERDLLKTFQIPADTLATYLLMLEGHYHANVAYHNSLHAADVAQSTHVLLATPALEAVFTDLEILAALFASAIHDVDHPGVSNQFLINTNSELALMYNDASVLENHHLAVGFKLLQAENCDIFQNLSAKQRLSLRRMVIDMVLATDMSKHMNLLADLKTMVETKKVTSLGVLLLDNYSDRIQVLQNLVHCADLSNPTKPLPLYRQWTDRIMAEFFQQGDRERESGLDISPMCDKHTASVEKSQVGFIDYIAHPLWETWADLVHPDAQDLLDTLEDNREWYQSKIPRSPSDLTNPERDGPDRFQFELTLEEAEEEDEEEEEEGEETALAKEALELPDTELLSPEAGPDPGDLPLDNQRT
T13 sequence (O60658 whole entry): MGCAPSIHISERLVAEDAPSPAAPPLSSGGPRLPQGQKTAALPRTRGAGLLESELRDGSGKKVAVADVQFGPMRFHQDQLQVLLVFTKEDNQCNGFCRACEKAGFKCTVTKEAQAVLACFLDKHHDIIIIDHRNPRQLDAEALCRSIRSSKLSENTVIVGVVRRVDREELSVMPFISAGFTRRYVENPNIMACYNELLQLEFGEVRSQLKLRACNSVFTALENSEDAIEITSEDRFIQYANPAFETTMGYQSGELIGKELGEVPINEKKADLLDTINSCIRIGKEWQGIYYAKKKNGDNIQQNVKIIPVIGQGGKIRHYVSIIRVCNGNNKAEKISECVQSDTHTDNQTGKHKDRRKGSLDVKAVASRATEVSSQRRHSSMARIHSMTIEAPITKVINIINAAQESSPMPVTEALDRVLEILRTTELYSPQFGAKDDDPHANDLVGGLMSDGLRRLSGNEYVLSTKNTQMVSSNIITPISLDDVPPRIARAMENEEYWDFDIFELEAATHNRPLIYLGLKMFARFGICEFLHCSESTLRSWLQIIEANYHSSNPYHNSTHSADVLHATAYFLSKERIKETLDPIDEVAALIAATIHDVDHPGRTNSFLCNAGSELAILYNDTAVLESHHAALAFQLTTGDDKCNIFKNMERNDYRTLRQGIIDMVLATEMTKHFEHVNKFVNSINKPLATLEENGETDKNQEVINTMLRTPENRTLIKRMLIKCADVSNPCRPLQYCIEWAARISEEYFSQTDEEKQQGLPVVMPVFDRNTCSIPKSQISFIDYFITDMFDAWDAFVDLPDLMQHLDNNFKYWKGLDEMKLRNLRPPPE
T11 sequence (O76083 whole entry): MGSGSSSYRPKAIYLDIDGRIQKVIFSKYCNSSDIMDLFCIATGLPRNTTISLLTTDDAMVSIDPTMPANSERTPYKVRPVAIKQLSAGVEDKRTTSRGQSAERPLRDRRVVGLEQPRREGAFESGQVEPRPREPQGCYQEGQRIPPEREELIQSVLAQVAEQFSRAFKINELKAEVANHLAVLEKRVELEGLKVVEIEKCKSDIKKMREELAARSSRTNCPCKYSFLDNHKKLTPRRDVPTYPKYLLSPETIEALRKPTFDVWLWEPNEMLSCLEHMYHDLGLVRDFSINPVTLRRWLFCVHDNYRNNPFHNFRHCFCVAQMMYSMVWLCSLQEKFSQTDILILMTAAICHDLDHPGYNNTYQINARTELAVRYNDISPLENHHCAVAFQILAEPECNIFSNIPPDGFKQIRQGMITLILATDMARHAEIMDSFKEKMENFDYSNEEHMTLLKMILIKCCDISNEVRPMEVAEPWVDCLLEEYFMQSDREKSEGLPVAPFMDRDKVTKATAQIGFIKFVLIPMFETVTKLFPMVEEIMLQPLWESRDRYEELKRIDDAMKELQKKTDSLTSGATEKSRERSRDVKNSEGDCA

IC50 [1] [nM]	Ratio IC50 (Homo sapiens)	inhibition [2] [%]	inhibition [3] [%]	inhibition [4] [%]	inhibition [5] [%]	IC50 [6] [nM]	IC50 [7] [nM]	IC50 [8] [nM]	inhibition [9] [%]	IC50 [10] [nM]	IC50 [11] [nM]	inhibition [12] [%]	inhibition [13] [%]	inhibition [14] [%]	IC50 [15] [nM]	inhibition [16] [%]	IC50 [18] [nM]	inhibition [19] [%]	IC50 [20] [nM]	SMILES	also measured
550	–	–	–	–	–	–	–	–	–	–	–	–	–	–	–	–	–	–	–	COc1ccc(C2CNC(=O)C2)cc1OC1CCCC1 (configuration not stated) [ROLIPRAM]	–
220	< 18	–	–	–	–	–	–	–	–	–	–	–	–	–	–	–	–	–	–	O=C(Nc1ccccc1)c1ccc(OC(F)F)c(OCC2CC2)c1	–
30	< 18	99	2	6	6	> 100000	> 100000	22	7	> 100000	144	100	3	97	> 100000	7	400	10	> 100000	O=C(Nc1ccccc1Cl)c1ccc(OC(F)F)c(OC2CCCC2)c1	IC50 [17]: > 100000 nM; IC50 [21]: > 100000 nM; IC50 [22]: > 100000 nM; inhibition [23]: 6%; IC50 [24]: > 100000 nM; inhibition [25]: 98%; inhibition [26]: 3%; IC50 [27]: 95 nM; inhibition [28]: 28%; IC50 [29]: > 100000 nM
2500	–	–	–	–	–	–	–	–	–	–	–	–	–	–	–	–	–	–	–	CN(C(=O)c1ccc(OC(F)F)c(OCC2CC2)c1)c1ccccn1	–
9700	–	–	–	–	–	–	–	–	–	–	–	–	–	–	–	–	–	–	–	COc1ccc(C(=O)N(C)c2ccccn2)cc1OC1CCCC1	–
360	< 18	–	–	–	–	–	–	–	–	–	–	–	–	–	–	–	–	–	–	COc1ccc(C(=O)Nc2cccnc2)cc1OCC1CC1	–
240	< 18	–	–	–	–	–	–	–	–	–	–	–	–	–	–	–	–	–	–	O=C(Nc1ccccc1)c1ccc(OC(F)F)c(OC2CCCC2)c1	–
25100	–	–	–	–	–	–	–	–	–	–	–	–	–	–	–	–	–	–	–	COc1ccc(C(=O)N(C)c2ccccn2)cc1OCC1CC1	–
310	< 18	–	–	–	–	–	–	–	–	–	–	–	–	–	–	–	–	–	–	COc1ccc(C(=O)Nc2cccnc2)cc1OC1CCCC1	–
1400	–	–	–	–	–	–	–	–	–	–	–	–	–	–	–	–	–	–	–	CN(C(=O)c1ccc(OC(F)F)c(OC2CCCC2)c1)c1ccccn1	–
69	< 18	100	28	14	6	> 100000	> 100000	71	85	> 100000	34	99	20	98	> 100000	23	269	22	> 100000	O=C(Nc1cccnc1)c1ccc(OC(F)F)c(OCC2CC2)c1	IC50 [21]: > 100000 nM; IC50 [22]: > 100000 nM; inhibition [23]: 8%; IC50 [24]: > 100000 nM; inhibition [25]: 98%; inhibition [26]: 7%; IC50 [27]: 76 nM; inhibition [28]: 23%; IC50 [29]: > 100000 nM
90	< 18	99	2	3	13	> 100000	> 100000	39	5	> 100000	166	98	6	96	> 100000	12	501	3	> 100000	O=C(Nc1ccccc1Cl)c1ccc(OC(F)F)c(OCC2CC2)c1	inhibition (BV-2): Dose-dependent effect; IC50 [17]: > 100000 nM; IC50 [21]: > 100000 nM; IC50 [22]: > 100000 nM; inhibition [23]: 3%; IC50 [24]: > 100000 nM; inhibition [25]: 100%; inhibition [26]: 7%; IC50 [27]: 126 nM; inhibition [28]: 8%; IC50 [29]: > 100000 nM
140	< 18	99	16	9	6	> 100000	> 100000	68	76	> 100000	39	99	0	98	> 100000	12	294	9	> 100000	O=C(Nc1cccnc1)c1ccc(OC(F)F)c(OC2CCCC2)c1	IC50 [21]: > 100000 nM; IC50 [22]: > 100000 nM; inhibition [23]: 4%; IC50 [24]: > 100000 nM; inhibition [25]: 98%; inhibition [26]: 3%; IC50 [27]: 117 nM; inhibition [28]: 26%; IC50 [29]: > 100000 nM
